{
  "source": "patent US11103514B2",
  "about": "“Treatment of muscular dystrophy” (Corcept Therapeutics, Inc., priority 2010, dated 2021)",
  "key": {"[1]": {"settings": "percent of the daily dose; in one study (Kawai); cited from earlier work"}, "[2]": {"test_system": "bitransgenic EpA960/MCM mice", "assay": "Tamoxifen-inducible heart-specific DM1 mouse model, mortality", "type": "in vivo", "settings": "intraperitoneal mifepristone in saline, beginning 2 hours after first tamoxifen injection; 1-100 mg per kg body weight; mock-treated mice 80% died within 3 weeks", "method": "In this model, EpA960 RNA is induced in the bitransgenic EpA960/MCM mice (F1 progeny) by 5 consecutive daily intraperitoneal injections of tamoxifen (20 mg/kg/d) leading to high mortality, conduction abnormalities, and systolic and diastolic dysfunction. […] Control or mock-treated mice are injected with saline solution alone. Each of the control and test groups typically includes 10-20 mice.\nTypically, eighty percent of the mock-treated mice died within 3 weeks of RNA induction due to arrhythmias and/or contractile dysfunction. […] Description of experimental procedures can be found in, e.g., Wang et al., J Clin Invest. 2009; 119(12):3797-806."}},
  "data": [
    {"smiles": "CC#C[C@]1(O)CC[C@H]2[C@@H]3CCC4=CC(=O)CCC4=C3[C@@H](c3ccc(N(C)C)cc3)C[C@@]21C", "note": "[Mifepristone, 17-β-hydroxy-11-β-(4-dimethyl-aminophenyl)-17-α-(1-propynyl)-estra-4,9-dien-3-one]", "values": [
      {"measurement": "daily dose excreted in the urine", "setting": "[1]", "value": "less than 0.5%"},
      {"measurement": "reduction of the mortality of bitransgenic mice", "setting": "[2]", "value": "at least 10%"}
    ]}
  ]
}
